From patent US20190216761A1, “COMPOSITIONS COMPRISING 15-HEPE AND METHODS OF USING THE SAME” (Afimmune Limited, priority 2015, published 2019)
Substitutions are numbered along the chain they refer to.

What was measured:
Assay type in all cases: cell-based
hPPARα = biological target: T1, hPPARα (Homo sapiens, UniProt Q07869); test: PPAR antagonist reporter assay (reference agonist at EC80)
T1 construct: expressed in transfected cells
T1 sequence (Q07869 239-466 limits assumed): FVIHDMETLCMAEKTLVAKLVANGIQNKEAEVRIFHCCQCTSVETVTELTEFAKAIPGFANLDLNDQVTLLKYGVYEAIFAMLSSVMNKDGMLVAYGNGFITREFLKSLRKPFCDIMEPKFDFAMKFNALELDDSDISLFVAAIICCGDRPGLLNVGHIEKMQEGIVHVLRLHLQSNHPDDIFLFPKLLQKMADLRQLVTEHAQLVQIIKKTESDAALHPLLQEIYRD
Method: (§1) This study utilized proprietary reporter cells expressing a hybrid receptor comprising the N-terminal Gal4 DNA binding domain fused to the ligand binding domain of the specific human nuclear receptor (hPPARα, hPPARδ, and hPPARγ) and rat nuclear receptor (rPPARα, rPPARδ, and rPPARγ). The reporter vectors used in this Example comprise the firefly luciferase gene functionally linked to the Gal4 upstream activation sequence.
(§2) Nuclear Receptor assay was performed by suspending Reporter Cells in CRM containing 10% charcoal stripped FBS. 2×-EC80 concentrations of the appropriate reference agonist were then added to the Reporter Cell suspension, and 100 μL of the mixture dispensed into wells of a white 96-well plate. Test compounds were diluted using compound screening medium (CSM) containing 10% charcoal stripped FBS to generate “2×-concentration” treatment media. Immediately after this dilution step, 100 μL of each diluted 2×-concentration treatment medium was dispensed (in triplicate) into the Reporter Cell-containing assay wells.
(§3) After incubation at 37° C. for 24 hours, the treatment media was discarded. Each well was rinsed once with LCM Buffer; LCM substrate was then added. After incubation for 30 minutes at 37° C., fluorescence was measured to determine the relative number of live cells per assay well. LCM substrate was then discarded and 100 μL of Luciferase Detection Reagent substrate was added to each well. RLUs were quantified from each well to determine nuclear receptor activities.

hPPARγ = biological target: T2, hPPARγ (Homo sapiens, UniProt P37231); test: as above
T2 construct: expressed in transfected cells
T2 sequence (P37231 238-503 limits assumed): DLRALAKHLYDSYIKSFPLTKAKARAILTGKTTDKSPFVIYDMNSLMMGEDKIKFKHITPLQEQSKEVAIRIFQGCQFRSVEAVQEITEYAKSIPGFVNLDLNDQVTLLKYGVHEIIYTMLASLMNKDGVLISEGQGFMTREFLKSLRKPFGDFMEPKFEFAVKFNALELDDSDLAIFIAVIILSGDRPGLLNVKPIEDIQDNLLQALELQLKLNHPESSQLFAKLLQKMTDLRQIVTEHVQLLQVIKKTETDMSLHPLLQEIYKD
Method: as §1, §2, §3

hPPARδ = biological target: T3, hPPARδ (Homo sapiens, UniProt Q03181); test: as above
T3 construct: expressed in transfected cells
T3 sequence (Q03181 211-439 limits assumed): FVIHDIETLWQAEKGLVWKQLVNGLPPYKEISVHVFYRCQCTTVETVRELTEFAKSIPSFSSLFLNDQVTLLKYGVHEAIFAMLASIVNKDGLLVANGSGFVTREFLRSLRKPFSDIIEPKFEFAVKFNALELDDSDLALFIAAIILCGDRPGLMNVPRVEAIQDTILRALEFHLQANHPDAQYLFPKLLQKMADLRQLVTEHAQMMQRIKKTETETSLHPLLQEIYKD
Method: as §1, §2, §3

rPPARα = biological target: T4, rPPARα (Rattus norvegicus, UniProt P37230); test: as above
T4 construct: expressed in transfected cells
T4 sequence (P37230 239-466 limits assumed): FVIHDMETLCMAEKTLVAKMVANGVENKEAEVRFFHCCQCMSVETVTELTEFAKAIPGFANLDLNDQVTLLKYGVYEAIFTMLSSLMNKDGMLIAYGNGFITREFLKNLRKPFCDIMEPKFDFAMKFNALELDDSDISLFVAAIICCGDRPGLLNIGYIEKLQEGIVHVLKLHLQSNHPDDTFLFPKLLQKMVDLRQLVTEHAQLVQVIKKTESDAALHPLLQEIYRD
Method: as §1, §2, §3

rPPARγ = biological target: T5, rPPARγ (Rattus norvegicus, UniProt O88275); test: as above
T5 construct: expressed in transfected cells
T5 sequence (O88275 238-503 limits assumed): T2 sequence (P37231 238-503 limits assumed) with S93N, V98I, L226V, Q245H
Method: as §1, §2, §3

rPPARα Reporter Cells = test: Live cell multiplex assay
Method: as §1, §2, §3

rPPARδ Reporter Cells = test: Live cell multiplex assay
Method: as §1, §2, §3

SMILES: CC/C=C\C/C=C\C/C=C\C/C=C\C/C=C\CCCC(=O)OCC [EPA-EE, EPA ethyl ester, reference compound]
- % Inhibition of agonist-stimulated receptor activity vs. 0.10% DMSO, hPPAR-α (hPPARα; 137 nM): 35%
- % Inhibition of agonist-stimulated receptor activity vs. 0.10% DMSO, hPPAR-α (hPPARα; 412 nM): 20%
- % Inhibition of agonist-stimulated receptor activity vs. 0.10% DMSO, hPPAR-α (hPPARα; 1,235 nM): 18%
- % Inhibition of agonist-stimulated receptor activity vs. 0.10% DMSO, hPPAR-α (hPPARα; 3,704 nM): 17%
- % Inhibition of agonist-stimulated receptor activity vs. 0.10% DMSO, hPPAR-α (hPPARα; 11,111 nM): 11%
- % Inhibition of agonist-stimulated receptor activity vs. 0.10% DMSO, hPPAR-α (hPPARα; 33,333 nM): 10%
- % Inhibition of agonist-stimulated receptor activity vs. 0.10% DMSO, hPPAR-α (hPPARα; 100,000 nM): 7.1%
- % Inhibition of agonist-stimulated receptor activity vs. 0.10% DMSO, hPPAR-α (hPPARα; 300,000 nM): 2.8%
- inhibition of human PPARs (in words), hPPARα (hPPARα; at higher test concentrations): does not exhibit similar inhibitory activity
- % Inhibition of agonist-stimulated receptor activity vs. 0.10% DMSO, hPPAR-γ (hPPARγ; 137 nM): 13%
- % Inhibition of agonist-stimulated receptor activity vs. 0.10% DMSO, hPPAR-γ (hPPARγ; 412 nM): 3.8%
- % Inhibition of agonist-stimulated receptor activity vs. 0.10% DMSO, hPPAR-γ (hPPARγ; 1,235 nM): −8.0%
- % Inhibition of agonist-stimulated receptor activity vs. 0.10% DMSO, hPPAR-γ (hPPARγ; 3,704 nM): −11%
- % Inhibition of agonist-stimulated receptor activity vs. 0.10% DMSO, hPPAR-γ (hPPARγ; 11,111 nM): −8.4%
- % Inhibition of agonist-stimulated receptor activity vs. 0.10% DMSO, hPPAR-γ (hPPARγ; 33,333 nM): 2.9%
- % Inhibition of agonist-stimulated receptor activity vs. 0.10% DMSO, hPPAR-γ (hPPARγ; 100,000 nM): −0.59%
- % Inhibition of agonist-stimulated receptor activity vs. 0.10% DMSO, hPPAR-γ (hPPARγ; 300,000 nM): 30%
- inhibition of human PPARs (in words), hPPARγ (hPPARγ; at higher test concentrations): does not exhibit similar inhibitory activity
- % Inhibition of agonist-stimulated receptor activity vs. 0.10% DMSO, hPPAR-δ (hPPARδ; 137 nM): −3.4%
- % Inhibition of agonist-stimulated receptor activity vs. 0.10% DMSO, hPPAR-δ (hPPARδ; 412 nM): −8.9%
- % Inhibition of agonist-stimulated receptor activity vs. 0.10% DMSO, hPPAR-δ (hPPARδ; 1,235 nM): −5.5%
- % Inhibition of agonist-stimulated receptor activity vs. 0.10% DMSO, hPPAR-δ (hPPARδ; 3,704 nM): −15%
- % Inhibition of agonist-stimulated receptor activity vs. 0.10% DMSO, hPPAR-δ (hPPARδ; 11,111 nM): −7.9%
- % Inhibition of agonist-stimulated receptor activity vs. 0.10% DMSO, hPPAR-δ (hPPARδ; 33,333 nM): −18%
- % Inhibition of agonist-stimulated receptor activity vs. 0.10% DMSO, hPPAR-δ (hPPARδ; 100,000 nM): −6.8%
- % Inhibition of agonist-stimulated receptor activity vs. 0.10% DMSO, hPPAR-δ (hPPARδ; 300,000 nM): 11%
- inhibition of human PPARs (in words), hPPARδ (hPPARδ; at higher test concentrations): does not exhibit similar inhibitory activity
- % Inhibition of agonist-stimulated receptor activity vs. 0.10% DMSO, rPPAR-α (rPPARα; 137 nM): 51%
- % Inhibition of agonist-stimulated receptor activity vs. 0.10% DMSO, rPPAR-α (rPPARα; 412 nM): 20%
- % Inhibition of agonist-stimulated receptor activity vs. 0.10% DMSO, rPPAR-α (rPPARα; 1,235 nM): 5.7%
- % Inhibition of agonist-stimulated receptor activity vs. 0.10% DMSO, rPPAR-α (rPPARα; 3,704 nM): 4.2%
- % Inhibition of agonist-stimulated receptor activity vs. 0.10% DMSO, rPPAR-α (rPPARα; 11,111 nM): −4.7%
- % Inhibition of agonist-stimulated receptor activity vs. 0.10% DMSO, rPPAR-α (rPPARα; 33,333 nM): 1.4%
- % Inhibition of agonist-stimulated receptor activity vs. 0.10% DMSO, rPPAR-α (rPPARα; 100,000 nM): 13%
- % Inhibition of agonist-stimulated receptor activity vs. 0.10% DMSO, rPPAR-α (rPPARα; 300,000 nM): 36%
- inhibition of rat PPARs (in words), rPPARα (rPPARα; at higher test concentrations): does not exhibit similar inhibitory activity
- % Inhibition of agonist-stimulated receptor activity vs. 0.10% DMSO, rPPAR-γ (rPPARγ; 137 nM): 9.6%
- % Inhibition of agonist-stimulated receptor activity vs. 0.10% DMSO, rPPAR-γ (rPPARγ; 412 nM): −7.4%
- % Inhibition of agonist-stimulated receptor activity vs. 0.10% DMSO, rPPAR-γ (rPPARγ; 1,235 nM): −7.3%
- % Inhibition of agonist-stimulated receptor activity vs. 0.10% DMSO, rPPAR-γ (rPPARγ; 3,704 nM): −0.55%
- % Inhibition of agonist-stimulated receptor activity vs. 0.10% DMSO, rPPAR-γ (rPPARγ; 11,111 nM): 2.8%
- % Inhibition of agonist-stimulated receptor activity vs. 0.10% DMSO, rPPAR-γ (rPPARγ; 33,333 nM): 5.0%
- % Inhibition of agonist-stimulated receptor activity vs. 0.10% DMSO, rPPAR-γ (rPPARγ; 100,000 nM): 6.2%
- % Inhibition of agonist-stimulated receptor activity vs. 0.10% DMSO, rPPAR-γ (rPPARγ; 300,000 nM): 7.0%
- inhibition of rat PPARs (in words), rPPARγ (rPPARγ; at higher test concentrations): does not exhibit similar inhibitory activity
- % Live cells vs. 0.10% DMSO, rPPAR-α (rPPARα Reporter Cells; 137 nM): 89%
- % Live cells vs. 0.10% DMSO, rPPAR-α (rPPARα Reporter Cells; 412 nM): 98%
- % Live cells vs. 0.10% DMSO, rPPAR-α (rPPARα Reporter Cells; 1,235 nM): 102%
- % Live cells vs. 0.10% DMSO, rPPAR-α (rPPARα Reporter Cells; 3,704 nM): 103%
- % Live cells vs. 0.10% DMSO, rPPAR-α (rPPARα Reporter Cells; 11,111 nM): 102%
- % Live cells vs. 0.10% DMSO, rPPAR-α (rPPARα Reporter Cells; 33,333 nM): 100%
- % Live cells vs. 0.10% DMSO, rPPAR-α (rPPARα Reporter Cells; 100,000 nM): 95%
- % Live cells vs. 0.10% DMSO, rPPAR-α (rPPARα Reporter Cells; 300,000 nM): 94%
- % Live cells vs. 0.10% DMSO, rPPAR-δ (rPPARδ Reporter Cells; 137 nM): 100%
- % Live cells vs. 0.10% DMSO, rPPAR-δ (rPPARδ Reporter Cells; 412 nM): 94%
- % Live cells vs. 0.10% DMSO, rPPAR-δ (rPPARδ Reporter Cells; 1,235 nM): 98%
- % Live cells vs. 0.10% DMSO, rPPAR-δ (rPPARδ Reporter Cells; 3,704 nM): 95%
- % Live cells vs. 0.10% DMSO, rPPAR-δ (rPPARδ Reporter Cells; 11,111 nM): 100%
- % Live cells vs. 0.10% DMSO, rPPAR-δ (rPPARδ Reporter Cells; 33,333 nM): 99%
- % Live cells vs. 0.10% DMSO, rPPAR-δ (rPPARδ Reporter Cells; 100,000 nM): 101%
- % Live cells vs. 0.10% DMSO, rPPAR-δ (rPPARδ Reporter Cells; 300,000 nM): 102%
